Key:
[1] = system: HIV-infected ATH8 cells / human lymphoid cell lines; conditions: compared with corresponding saturated derivatives; cited from earlier work
reovirus type 1 = experiment: Antiviral activity against other viruses; assay type: cell-based; conditions: Mammalian orthoreovirus 1, HeLa, Vero or PRK cell cultures, read-out: 50% effective inhibitory dose (EID50)
HIV [2] = experiment: microbe, parasite or virus in culture; assay type: cell-based
MT-4 cells = experiment: Cytostatic effect (inhibition of cell proliferation); assay type: cell-based; conditions: Homo sapiens, MT4, read-out: IC50 (50%-inhibitory concentration, cell proliferation)
Experimental: (§1) The compounds ddeCyd and ddCyd were evaluated for their cytostatic effect against a series of murin and human cell lines. This was based upon measuring the inhibition of cell proliferation according to the procedures described by De Clercq et al. in Mol.Pharmacol. 19, 321-330 (1981).
(§2) The following cell lines were used: murine leukemia L1210 cells, designated L1210/0; murine mammary carcinoma FM3A cells; human B-lymphoblast Raji cells; human T-lymphoblast Molt/4F cells; human T4 -lymphocyte ATH8 cells and human T4 -lymphocyte MT-4 cells.

Molt/4F cells = experiment: as above; assay type: cell-based; conditions: Homo sapiens, read-out: IC50 (50%-inhibitory concentration, cell proliferation)
Experimental: as §1, §2

ATH8 cells = experiment: as above; assay type: cell-based; conditions: Homo sapiens, ATH-8, read-out: IC50 (50%-inhibitory concentration, cell proliferation)
Experimental: as §1, §2

Raji cells = experiment: as above; assay type: cell-based; conditions: Homo sapiens, read-out: IC50 (50%-inhibitory concentration, cell proliferation)
Experimental: as §1, §2

Sindbis virus = experiment: Antiviral activity against other viruses; assay type: cell-based; conditions: HeLa, Vero or PRK cell cultures, read-out: 50% effective inhibitory dose (EID50)
[3] = system: vesicular stomatitis virus; experiment: microbe, parasite or virus in culture; assay type: cell-based; conditions: read-out: 50% effective inhibitory dose (EID50)
[4] = system: parainfluenza virus type 3; experiment: Antiviral activity against other viruses; assay type: cell-based; conditions: Human respirovirus 3, HeLa, Vero or PRK cell cultures, read-out: 50% effective inhibitory dose (EID50)
HIV [5] = experiment: microbe, parasite or virus in culture; assay type: cell-based; conditions: for EC50: Human immunodeficiency virus 1, ATH-8, read-out: EID50 for inhibition of HIV cytopathogenicity
[6] = system: DNA viruses and RNA viruses; experiment: Antiviral activity against other viruses, overall statement; assay type: cell-based; conditions: in words
Coxsackie B4 virus = experiment: Antiviral activity against other viruses; assay type: cell-based; conditions: Enterovirus B, HeLa, Vero or PRK cell cultures, read-out: 50% effective inhibitory dose (EID50)
[7] = system: herpes simplex virus type 2; experiment: Antiviral activity against other viruses; assay type: cell-based; conditions: Human alphaherpesvirus 2, HeLa, Vero or PRK cell cultures, read-out: 50% effective inhibitory dose (EID50)
vaccinia virus = experiment: microbe, parasite or virus in culture; assay type: cell-based; conditions: Orthopoxvirus vaccinia, read-out: 50% effective inhibitory dose (EID50)
[8] = system: herpes simplex virus type 1; experiment: Antiviral activity against other viruses; assay type: cell-based; conditions: Human alphaherpesvirus 1, HeLa, Vero or PRK cell cultures, read-out: 50% effective inhibitory dose (EID50)
HIV [9] = experiment: Protection against HIV replication in MT-4 cells; assay type: cell-based; conditions: for inhibition at 0.1 µM: Human immunodeficiency virus 1, MT4, 0.1 μM
HIV [10] = conditions: cited from earlier work
HIV [11] = experiment: microbe, parasite or virus in culture; assay type: cell-based; conditions: Human immunodeficiency virus 1, MT4, read-out: % Inhibition of viral antigen expression
polio virus type 1 = experiment: organism not typed; assay type: cell-based; conditions: read-out: 50% effective inhibitory dose (EID50)
FM3A cells = experiment: Cytostatic effect (inhibition of cell proliferation); assay type: cell-based, murine; conditions: Mus musculus, read-out: IC50 (50%-inhibitory concentration, cell proliferation)
Experimental: as §1, §2

L1210/0 cells = experiment: as above; assay type: cell-based, murine; conditions: Mus musculus, read-out: IC50 (50%-inhibitory concentration, cell proliferation)
Experimental: as §1, §2

Q: For `Nc1ncnc2c1ncn2[C@H]1C=C[C@@H](CO)O1` [2',3'-unsaturated 2',3'-dideoxyadenosine], which “protection of HIV-infected ATH8 cells and/or cytostatic activity against human lymphoid cell lines” value [1] is on record?
A: significantly less protective against HIV-infected ATH8 cells and/or considerably more cytostatic against human lymphoid cell lines

Q: For `Nc1ccn([C@H]2CC[C@@H](CO)O2)c(=O)n1` [ddCyd, 2',3'-dideoxycytidine, reference compound], which EC50 (reovirus type 1) is on record?
A: > 100 µM

Q: What about the “antiviral potency upon prolonged exposure” value (HIV [2]) of the same compound?
A: without decrease upon prolonged exposure

Q: And the “protection of ATH8 cells” value (HIV [2]; 0.5 μM, ATH8 cells, no decrease upon prolonged exposure)?
A: completely protected

Q: And the inhibition at 0.1 µM (HIV [2]; Human immunodeficiency virus 1, ATH-8, 0.1 μM, ATH8 cells, no decrease upon prolonged exposure, read-out: protection against HIV replication in ATH8 cells)?
A: 75%

Q: And the IC50 (MT-4 cells)?
A: 35 µM

Q: And the IC50 (Molt/4F cells)?
A: 17 µM

Q: What about the IC50 (ATH8 cells) of the same compound?
A: 35 µM

Q: What about the IC50 (Raji cells) of the same compound?
A: 12 µM

Q: And the EC50 (Sindbis virus)?
A: > 100 µM

Q: What about the EC50 [3] of the same compound?
A: > 100 µM

Q: And the EC50 [4]?
A: > 100 µM

Q: What about the EC50 (HIV [5]) of the same compound?
A: 0.1 to 0.3 µM

Q: And the “antiviral effect against other (non-oncogenic RNA and DNA) viruses” value [6]?
A: neither ddeCyd nor ddCyd demonstrated any significant antiviral effect

Q: And the EC50 (Coxsackie B4 virus)?
A: > 100 µM

Q: What about the EC50 [7] of the same compound?
A: > 100 µM

Q: What about the EC50 (vaccinia virus) of the same compound?
A: > 100 µM

Q: And the EC50 [8]?
A: > 100 µM

Q: What about the “protection of MT-4 cells” value (HIV [9]; 0.5 μM, in words) of the same compound?
A: completely protected

Q: What about the inhibition at 0.1 µM (HIV [9]) of the same compound?
A: 75%

Q: What about the “concentration effecting complete antiviral protection” value (HIV [10]; in vitro) of the same compound?
A: 0.5 to 1.0 µM

Q: What about the inhibition at 0.1 µM (HIV [11]) of the same compound?
A: 70%

Q: And the inhibition at 0.5 µM (HIV [11])?
A: 96%

Q: What about the inhibition at 2 µM (HIV [11]) of the same compound?
A: 97%

Q: What about the inhibition at 5 µM (HIV [11]) of the same compound?
A: 97%

Q: And the inhibition at 20 µM (HIV [11])?
A: 96%

Q: And the EC50 (polio virus type 1)?
A: > 100 µM

Q: And the IC50 (FM3A cells)?
A: > 2370 µM

Q: What about the IC50 (L1210/0 cells) of the same compound?
A: 320 µM

Q: What does the source list for `Nc1ccn([C@H]2C=C[C@@H](CO)O2)c(=O)n1` [ddeCyd, 2',3'-didehydro-2'-3'-dideoxycytidine]?
A: EC50 (reovirus type 1): > 100 µM; antiviral potency upon prolonged exposure (HIV [2]): decrease in antiviral potency; protection of cells against destruction by the virus (HIV [2]): almost complete protection; protective effect at a longer time interval (HIV [2]; 10 days (vs 7 days), ATH8 cells): somewhat lower; inhibition at 0.1 µM (HIV [2]; Human immunodeficiency virus 1, ATH-8, 168 h, read-out: protection of cells against destruction by the virus): ~40%; EC (optimum protection) (HIV [2]; Human immunodeficiency virus 1, ATH-8, 240 h, 10 days, ATH8 cells, read-out: concentration for optimum protection): ~2 µM; IC50 (MT-4 cells): 15 µM; IC50 (Molt/4F cells): 20 µM; IC50 (ATH8 cells): 30 µM; IC50 (Raji cells): 13 µM; EC50 (Sindbis virus): > 100 µM; EC50 [3]: > 100 µM; EC50 [4]: > 100 µM; effectiveness in inhibiting cytopathogenicity and antigen expression of HIV (HIV [5]; ATH 8 and MT-4 cells, compared with 2',3'-dideoxycytidine): almost as effective as 2',3'-dideoxycytidine; EC50 (HIV [5]): 0.1 to 0.3 µM; fold by which HIV-inhibiting concentrations are below any toxicity for the host cells (HIV [5]; T-cells): at least 100 fold; inhibition of human immunodeficiency virus in cell cultures (HIV [5]; in words): potent and selective inhibitor of human immunodeficiency virus in cell cultures; antiviral effect against other (non-oncogenic RNA and DNA) viruses [6]: neither ddeCyd nor ddCyd demonstrated any significant antiviral effect; antiviral effect against other (non-oncogenic RNA and DNA) viruses ([6]; listed as 2',3'-dideoxycytidinene): not show any inhibitory effect; EC50 (Coxsackie B4 virus): > 100 µM; EC50 [7]: > 100 µM; EC50 (vaccinia virus): > 100 µM; EC50 [8]: > 100 µM; inhibition at 0.1 µM (HIV [9]): 28%; inhibition at 0.5 µM (HIV [9]; Human immunodeficiency virus 1, MT4, 0.5 μM): 91%; inhibition at 0.02 µM (HIV [11]; 0.02 μM): 8%; inhibition at 0.1 µM (HIV [11]): 20%; inhibition at 0.5 µM (HIV [11]): 85%; inhibition at 2 µM (HIV [11]): 98%; inhibition at 5 µM (HIV [11]): 98%; inhibition at 20 µM (HIV [11]): 96%; EC50 (polio virus type 1): > 100 µM; IC50 (FM3A cells): 1160 µM; IC50 (L1210/0 cells): 196 µM

Q: With `Cc1cn([C@H]2C=C[C@@H](CO)O2)c(=O)[nH]c1=O` [2',3'-unsaturated 2',3'-dideoxythymidine] as the compound, how does the “protection of HIV-infected ATH8 cells and/or cytostatic activity against human lymphoid cell lines” value [1] read?
A: significantly less protective against HIV-infected ATH8 cells and/or considerably more cytostatic against human lymphoid cell lines

Q: For `Cc1cn([C@H]2C[C@H](N=[N+]=[N-])[C@@H](CO)O2)c(=O)[nH]c1=O` [azidothymidine, 3'-azido-2',2'-dideoxythymidine], which “inhibition of HIV replication” value (HIV [10]; lymphocyte cultures) is on record?
A: potent inhibitor of HIV replication
